This note sets out measurements from patent US11566057B2, “Long-acting co-agonists of the glucagon and GLP-1 receptors” (Merck Sharp & Dohme Corp., priority 2017, dated 2023).

A word on the EC50: it is the midpoint of the concentration-response curve.

Molecules are shown by their SMILES. Like-named read-outs stand apart in the source and are kept apart here. Numbered stars: 1 amine (or outer) side, 2 acyl side, 3 side chain; on linkers, the order of the positions; unused ones are H or OH. Square brackets hold non-standard residues; d marks the D form. Side chains are listed from the residue outwards. Peptide text beside a SMILES is read from it. * marks the point of attachment. C20 diacid = O=C(O)CCCCCCCCCCCCCCCCCCC(=O)*; Phe(4-CH2NH2) = NCc1ccc(C[C@H](N)C(=O)O)cc1; C18 diacid = O=C(O)CCCCCCCCCCCCCCCCC(=O)*; C16 diacid = O=C(O)CCCCCCCCCCCCCCC(=O)*; γGlu = O=C(O)[C@H](CCC(=O)[*:2])N[*:1]; Met(O2) = CS(=O)(=O)CC[C@H](N)C(=O)O; AEEA = NCCOCCOCC(=O)O; Aib = CC(C)(N)C(=O)O

The target in experiment [1] is T1, human GCGR (Homo sapiens, UniProt P47871).
T1 construct: expressed in transfected cells; growth medium holds Blasticidin and Hygromycin
Description: cAMP activity assay at the Glucagon receptor (GCGR). It counts as cell-based. Particulars: for hGCGR/hGLP1R (hTone): ratio of GCGR EC50 to GLP1R EC50. In outline: (§1)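 Peptides serially diluted from DMSO (10 points) and added to frozen-stock cells bearing human GLP1R (10,000 cells/well) or GCGR (30,000 cells/well), 1 h at RT, dark. EC50 by four-parameter logistic fit of HitHunter cAMPXS luminescence, read following overnight RT incubation.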

Experiment [2] addresses T2, human GLP1R (Homo sapiens, UniProt P43220).
T2 construct: expressed in transfected cells; growth medium holds Blasticidin and Hygromycin
Put plainly: cAMP activity assay at the GLP-1 receptor (GLP1R). It counts as cell-based. The method, boiled down: as §1

Setting [3] is: summary statement: EC50 at each of the glucagon and GLP-1 receptors, read-out: EC50 at the glucagon receptor.
Where [4] appears, read: summary statement: EC50 at each of the glucagon and GLP-1 receptors, read-out: EC50 at the GLP-1 receptor.
The mark [5] stands for this setting: cells expressing human GCGR, cAMP production, buffer with or without 20% human serum (not stated which), read-out: GCGR EC50 human.

T1 sequence (P47871 26-477): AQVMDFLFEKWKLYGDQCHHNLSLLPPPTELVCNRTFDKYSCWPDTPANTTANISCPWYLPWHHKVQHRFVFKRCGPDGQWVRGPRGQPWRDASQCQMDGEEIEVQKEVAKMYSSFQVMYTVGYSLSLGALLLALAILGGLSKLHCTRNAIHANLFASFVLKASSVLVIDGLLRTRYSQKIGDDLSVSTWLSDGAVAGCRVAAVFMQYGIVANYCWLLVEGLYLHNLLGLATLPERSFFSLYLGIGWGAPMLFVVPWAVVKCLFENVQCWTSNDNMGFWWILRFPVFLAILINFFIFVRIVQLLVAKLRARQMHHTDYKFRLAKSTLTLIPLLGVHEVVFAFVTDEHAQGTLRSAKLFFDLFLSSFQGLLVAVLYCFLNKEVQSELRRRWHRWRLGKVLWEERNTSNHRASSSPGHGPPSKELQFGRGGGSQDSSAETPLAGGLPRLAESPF
T2 sequence (P43220 24-463): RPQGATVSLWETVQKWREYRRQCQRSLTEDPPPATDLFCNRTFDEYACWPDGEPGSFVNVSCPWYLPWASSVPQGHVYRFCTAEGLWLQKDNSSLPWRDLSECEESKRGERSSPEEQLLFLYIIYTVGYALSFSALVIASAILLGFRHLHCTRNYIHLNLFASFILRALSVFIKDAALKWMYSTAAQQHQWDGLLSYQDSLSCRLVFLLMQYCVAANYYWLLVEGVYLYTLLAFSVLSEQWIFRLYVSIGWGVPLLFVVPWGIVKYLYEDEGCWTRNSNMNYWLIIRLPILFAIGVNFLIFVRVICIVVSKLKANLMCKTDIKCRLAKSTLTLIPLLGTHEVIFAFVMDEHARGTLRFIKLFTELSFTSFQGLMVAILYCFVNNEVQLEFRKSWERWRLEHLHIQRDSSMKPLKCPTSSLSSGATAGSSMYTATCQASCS

Regarding `CC(C)C[C@H](NC(=O)[C@H](Cc1c[nH]c2ccccc12)NC(=O)[C@H](CCCCNC(=O)COCCOCCNC(=O)COCCOCCNC(=O)CC[C@H](NC(=O)CCCCCCCCCCCCCCCCC(=O)O)C(=O)O)NC(=O)[C@@H](NC(=O)[C@H](Cc1ccccc1)NC(=O)[C@H](CC(=O)O)NC(=O)[C@H](CCC(N)=O)NC(=O)[C@H](C)NC(=O)[C@H](C)NC(=O)[C@H](CCCNC(=N)N)NC(=O)C(C)(C)NC(=O)[C@H](CC(=O)O)NC(=O)[C@H](CC(C)C)NC(=O)[C@H](Cc1ccc(O)cc1)NC(=O)[C@H](CCCCN)NC(=O)[C@H](CO)NC(=O)[C@H](Cc1ccc(O)cc1)NC(=O)[C@H](CC(=O)O)NC(=O)[C@H](CO)NC(=O)[C@@H](NC(=O)[C@H](Cc1ccccc1)NC(=O)[C@@H](NC(=O)CNC(=O)[C@H](CCC(N)=O)NC(=O)C(C)(C)NC(=O)[C@@H](N)Cc1c[nH]cn1)[C@@H](C)O)[C@@H](C)O)C(C)C)C(=O)N[C@@H](CCS(C)(=O)=O)C(=O)N[C@@H](CC(=O)O)C(=O)N[C@H](C(=O)O)[C@@H](C)O` [TP737] (H-H[Aib]QGTFTSDYSKYLD[Aib]RAAQDFVK([AEEA-AEEA-γGlu-C18 diacid])WL[Met(O2)]DT-OH; N-terminus assumed), the “hGCGR/hGLP1R (hTone)” value in experiment [1] was found to be 0.6. Also, the EC50 in experiment [1] (setting [3]) and in experiment [2] (setting [4]) was < 5 nM each time.

In the case of `CC(C)C[C@H](NC(=O)[C@H](Cc1c[nH]c2ccccc12)NC(=O)[C@H](CCCCNC(=O)COCCOCCNC(=O)COCCOCCNC(=O)CC[C@H](NC(=O)CCCCCCCCCCCCCCCCC(=O)O)C(=O)O)NC(=O)[C@@H](NC(=O)[C@H](Cc1ccccc1)NC(=O)[C@H](CC(=O)O)NC(=O)[C@H](CCC(N)=O)NC(=O)[C@H](C)NC(=O)[C@H](C)NC(=O)[C@H](CCCNC(=N)N)NC(=O)C(C)(C)NC(=O)[C@H](CC(=O)O)NC(=O)[C@H](CC(C)C)NC(=O)[C@H](Cc1ccc(O)cc1)NC(=O)[C@H](CCCCN)NC(=O)[C@H](CO)NC(=O)[C@H](Cc1ccc(O)cc1)NC(=O)[C@H](CC(=O)O)NC(=O)[C@H](CO)NC(=O)[C@@H](NC(=O)[C@H](Cc1ccccc1)NC(=O)[C@@H](NC(=O)CNC(=O)[C@H](CCC(N)=O)NC(=O)C(C)(C)NC(=O)[C@@H](N)Cc1c[nH]cn1)[C@@H](C)O)[C@@H](C)O)C(C)C)C(=O)N[C@@H](CCS(C)(=O)=O)C(=O)N[C@@H](CCC(=O)O)C(=O)N[C@H](C(N)=O)[C@@H](C)O` [TP675] (H-H[Aib]QGTFTSDYSKYLD[Aib]RAAQDFVK([AEEA-AEEA-γGlu-C18 diacid])WL[Met(O2)]ET-NH2), the “hGCGR/hGLP1R (hTone)” value in experiment [1] is recorded as 0.4. In addition, the EC50 is < 5 nM in experiment [1] (setting [3]); 0.71 nM in experiment [2] (cells expressing human GLP1R, cAMP production, buffer with or without 20% human serum (not stated which), read-out: GLP1R EC50 human); < 5 nM in experiment [2] (setting [4]).

Consider `CC(C)C[C@H](NC(=O)[C@H](Cc1ccc(O)cc1)NC(=O)[C@H](CCCCN)NC(=O)[C@H](CO)NC(=O)[C@H](Cc1ccc(O)cc1)NC(=O)[C@H](CC(=O)O)NC(=O)[C@H](CO)NC(=O)[C@@H](NC(=O)[C@H](Cc1ccccc1)NC(=O)[C@@H](NC(=O)CNC(=O)[C@H](CCC(N)=O)NC(=O)C(C)(C)NC(=O)[C@@H](N)Cc1c[nH]cn1)[C@@H](C)O)[C@@H](C)O)C(=O)N[C@@H](CC(=O)O)C(=O)N[C@@H](C)C(=O)N[C@@H](CCCNC(=N)N)C(=O)N[C@@H](C)C(=O)N[C@@H](C)C(=O)N[C@@H](CCCCNC(=O)COCCOCCNC(=O)COCCOCCNC(=O)CC[C@H](NC(=O)CCCCCCCCCCCCCCCCC(=O)O)C(=O)O)C(=O)N[C@@H](CCC(=O)O)C(=O)N[C@@H](Cc1ccccc1)C(=O)N[C@H](C(=O)N[C@@H](CCC(N)=O)C(=O)N[C@@H](Cc1c[nH]c2ccccc12)C(=O)N[C@@H](CC(C)C)C(=O)N[C@@H](CCS(C)(=O)=O)C(=O)N[C@@H](CC(=O)O)C(=O)N[C@H](C(N)=O)[C@@H](C)O)C(C)C` [TP704] (H-H[Aib]QGTFTSDYSKYLDARAAK([AEEA-AEEA-γGlu-C18 diacid])EFVQWL[Met(O2)]DT-NH2; N-terminus assumed), for which the values for the 50% effective concentration (EC50) in experiment [1] (setting [5]), in experiment [1] (setting [3]) and in experiment [2] (setting [4]) were 0.27 nM, < 5 nM and < 5 nM, respectively. The “hGCGR/hGLP1R (hTone)” value in experiment [1] is recorded as 0.7.

With `CC(C)C[C@H](NC(=O)[C@H](Cc1ccc(O)cc1)NC(=O)[C@H](CCCCN)NC(=O)[C@H](CO)NC(=O)[C@H](Cc1ccc(O)cc1)NC(=O)[C@H](CC(=O)O)NC(=O)[C@H](CO)NC(=O)[C@@H](NC(=O)[C@H](Cc1ccccc1)NC(=O)[C@@H](NC(=O)CNC(=O)[C@H](CCC(N)=O)NC(=O)C(C)(C)NC(=O)[C@@H](N)Cc1c[nH]cn1)[C@@H](C)O)[C@@H](C)O)C(=O)N[C@@H](CC(=O)O)C(=O)N[C@@H](C)C(=O)N[C@@H](CCCNC(=N)N)C(=O)N[C@@H](C)C(=O)N[C@@H](C)C(=O)N[C@@H](CCCCNC(=O)COCCOCCNC(=O)COCCOCCNC(=O)CC[C@H](NC(=O)CCCCCCCCCCCCCCCCC(=O)O)C(=O)O)C(=O)N[C@@H](CC(=O)O)C(=O)N[C@@H](Cc1ccccc1)C(=O)N[C@H](C(=O)N[C@@H](CCC(N)=O)C(=O)N[C@@H](Cc1c[nH]c2ccccc12)C(=O)N[C@@H](CC(C)C)C(=O)N[C@@H](CCS(C)(=O)=O)C(=O)N[C@@H](CC(=O)O)C(=O)N[C@H](C(=O)O)[C@@H](C)O)C(C)C` [TP736] (H-H[Aib]QGTFTSDYSKYLDARAAK([AEEA-AEEA-γGlu-C18 diacid])DFVQWL[Met(O2)]DT-OH), the “hGCGR/hGLP1R (hTone)” value in experiment [1] was found to be 2.8. The EC50 in experiment [1] (setting [3]) and in experiment [2] (setting [4]) was < 5 nM in each case.

As to `CC(C)C[C@H](NC(=O)[C@H](Cc1ccc(O)cc1)NC(=O)[C@H](CCCCN)NC(=O)[C@H](CO)NC(=O)[C@H](Cc1ccc(CNC(=O)COCCOCCNC(=O)COCCOCCNC(=O)CC[C@H](NC(=O)CCCCCCCCCCCCCCCCCCC(=O)O)C(=O)O)cc1)NC(=O)[C@H](CC(=O)O)NC(=O)[C@H](CO)NC(=O)[C@@H](NC(=O)[C@H](Cc1ccccc1)NC(=O)[C@@H](NC(=O)CNC(=O)[C@H](CCC(N)=O)NC(=O)C(C)(C)NC(=O)[C@@H](N)Cc1c[nH]cn1)[C@@H](C)O)[C@@H](C)O)C(=O)N[C@@H](CC(=O)O)C(=O)N[C@@H](C)C(=O)N[C@@H](CCCNC(=N)N)C(=O)N[C@@H](C)C(=O)N[C@@H](C)C(=O)N[C@@H](CCC(N)=O)C(=O)N[C@@H](CC(=O)O)C(=O)N[C@@H](Cc1ccccc1)C(=O)N[C@H](C(=O)N[C@@H](CCC(N)=O)C(=O)N[C@@H](Cc1c[nH]c2ccccc12)C(=O)N[C@@H](CC(C)C)C(=O)N[C@@H](CCS(C)(=O)=O)C(=O)N[C@@H](CC(=O)O)C(=O)N[C@H](C(N)=O)[C@@H](C)O)C(C)C` [TP580] (H-H[Aib]QGTFTSD[Phe(4-CH2NH2)]([AEEA-AEEA-γGlu-C20 diacid])SKYLDARAAQDFVQWL[Met(O2)]DT-NH2; N-terminus assumed), the concentration for a half-maximal effect (EC50) was 1.09 nM in experiment [1] (setting [5]), < 5 nM in experiment [1] (setting [3]) and < 5 nM in experiment [2] (setting [4]). Besides, in experiment [1], the “hGCGR/hGLP1R (hTone)” value turned out to be 2.4.

Consider `CC(C)C[C@H](NC(=O)[C@H](Cc1ccc(O)cc1)NC(=O)[C@H](CCCCN)NC(=O)[C@H](CO)NC(=O)[C@H](Cc1ccc(O)cc1)NC(=O)[C@H](CC(=O)O)NC(=O)[C@H](CO)NC(=O)[C@@H](NC(=O)[C@H](Cc1ccccc1)NC(=O)[C@@H](NC(=O)CNC(=O)[C@H](CCC(N)=O)NC(=O)C(C)(C)NC(=O)[C@@H](N)Cc1c[nH]cn1)[C@@H](C)O)[C@@H](C)O)C(=O)N[C@@H](CC(=O)O)C(=O)N[C@@H](C)C(=O)N[C@@H](CCCNC(=N)N)C(=O)N[C@@H](C)C(=O)N[C@@H](C)C(=O)N[C@@H](CCCCNC(=O)COCCOCCNC(=O)COCCOCCNC(=O)CC[C@H](NC(=O)CCCCCCCCCCCCCCCCC(=O)O)C(=O)O)C(=O)N[C@@H](CC(=O)O)C(=O)N[C@@H](Cc1ccccc1)C(=O)N[C@H](C(=O)N[C@@H](CCC(N)=O)C(=O)N[C@@H](Cc1c[nH]c2ccccc12)C(=O)N[C@@H](CC(C)C)C(=O)N[C@@H](CCS(C)(=O)=O)C(=O)N[C@@H](CCC(N)=O)C(=O)N[C@H](C(N)=O)[C@@H](C)O)C(C)C` [TP600] (H-H[Aib]QGTFTSDYSKYLDARAAK([AEEA-AEEA-γGlu-C18 diacid])DFVQWL[Met(O2)]QT-NH2; N-terminus assumed), for which, in experiment [1], the “hGCGR/hGLP1R (hTone)” value came out at 3.1. In addition, the EC50 in experiment [1] (setting [3]) and in experiment [2] (setting [4]) was < 5 nM in each case.

`CC(C)C[C@H](NC(=O)[C@H](Cc1ccc(O)cc1)NC(=O)[C@H](CCCCN)NC(=O)[C@H](CO)NC(=O)[C@H](Cc1ccc(O)cc1)NC(=O)[C@H](CC(=O)O)NC(=O)[C@H](CO)NC(=O)[C@@H](NC(=O)[C@H](Cc1ccccc1)NC(=O)[C@@H](NC(=O)CNC(=O)[C@H](CCC(N)=O)NC(=O)C(C)(C)NC(=O)[C@@H](N)Cc1c[nH]cn1)[C@@H](C)O)[C@@H](C)O)C(=O)N[C@@H](CC(=O)O)C(=O)N[C@@H](C)C(=O)N[C@@H](CCCNC(=N)N)C(=O)N[C@@H](C)C(=O)N[C@@H](C)C(=O)N[C@@H](CCCCNC(=O)COCCOCCNC(=O)COCCOCCNC(=O)CC[C@H](NC(=O)CCCCCCCCCCCCCCC(=O)O)C(=O)O)C(=O)N[C@@H](CC(=O)O)C(=O)N[C@@H](Cc1ccccc1)C(=O)N[C@H](C(=O)N[C@@H](CCC(N)=O)C(=O)N[C@@H](Cc1c[nH]c2ccccc12)C(=O)N[C@@H](CC(C)C)C(=O)N[C@@H](CCS(C)(=O)=O)C(=O)N[C@@H](CCC(=O)N[C@H](C(N)=O)[C@@H](C)O)C(=O)O)C(C)C` [TP826] (H-H[Aib]QGTFTSDYSKYLDARAAK([AEEA-AEEA-γGlu-C16 diacid])DFVQWL[Met(O2)][γGlu]T-NH2): in experiment [1], the “hGCGR/hGLP1R (hTone)” value is 2.7. Besides, the EC50 in experiment [1] (setting [3]) and in experiment [2] (setting [4]) was < 5 nM in each case.
